In PubChem BioAssay AID179 (DTP/NCI, 2004) one finds EC50, IC50 and outcome data, which are given here for 30 compounds.

The test system of the experiment is CEM cells HIV-1 protection, formazan growth assay. Description: NCI AIDS Antiviral Assay. The conditions noted are these: for IC50: measured here: growth of uninfected CEM cells. The method, boiled down:
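CEM (human) cells, HIV-1 infected vs uninfected, 5-point dosing, formazan growth read-out. Retest threshold 50% protection.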

Molecules are shown by their SMILES. Active and inactive are the calls of the source.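 How the source made its calls: active means compounds giving half or more protection of infected cells from virus-caused growth loss, again on retest; inactive means the rest.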

The EC50 is the concentration that produces a half-maximal response. A word on the IC50: it is the concentration that gives 50% inhibition. Low values mean greater potency in that assay, high ones weaker potency in that assay. On to `COC(=O)CCCC=C(c1cc(C)c(OC)c(Br)c1)c1cc(C)c(OC)c(Br)c1`, for which the EC50 is > 200 µM and the IC50 came to 39.8 µM.
For the compound `O=C(O)c1sccc1-c1cccc2ccccc12`, the EC50 was > 200 µM and the IC50 worked out at 83.2 µM.
The matching figures for `C[C@]12OC[C@H](c3ccccc3)N1C(=O)C1[C@H]2CC12SCCS2` (stereo partly specified): > 200 µM and 178 µM.
Taken in the same sequence, the figures for `CN(C)CCCN=c1c2ccccc2n(O)c2ccccc12` were > 200 µM and 8.13 µM.
For `O=C(O)C(CS(=O)(=O)O)S(=O)(=O)O` (stereo unspecified), the result was inactive.
For the compound `COC(=O)Cc1cccc2c(=O)c(S(=O)(=O)NC(=O)Nc3ccc(Cl)cc3)c(-c3ccccc3)oc12`, the EC50 was > 200 µM and the IC50 amounted to 41.7 µM.
The matching figures for `CC(=O)O[C@H]1CC[C@H]2[C@@H]3CCC4C(C)=NNC(=O)C4[C@H]3CC[C@]12C` (stereo partly specified): > 200 µM and > 200 µM.
Taken in the same sequence, the figures for `CC/C(C)=C1/CC(C)(C)N=C1C` were > 200 µM and 89.1 µM.
The matching figures for `O=C(O)c1ccccc1-c1c2ccc(=O)cc-2oc2cc(O)ccc12`: > 316 µM and 58.9 µM.
With `O=C1OC(C2Cc3ccccc3C2=O)c2ccccc21` (stereo unspecified), the EC50 was > 200 µM and the half-inhibitory concentration (IC50) is 186 µM.
Consider `O=C(OCc1ccccc1)N1CC(O)C2OC3OC4(CCCCC4)OC3C21` (stereo unspecified), for which the EC50 was > 200 µM and the IC50 turned out to be 170 µM.
With `CC(=O)Oc1c(C)cc2c(c1C)C(C)(C)CN2C(=O)C(C)(C)C`, the EC50 is > 200 µM and the half-inhibitory concentration (IC50) amounted to 66.1 µM.
With `NCCCCNCCCN1CC1`, the EC50 was > 200 µM and the half-maximal inhibitory concentration (IC50) was determined as 0.148 µM.
The matching figures for `CC(=O)N1C(=O)CC(c2ccccc2)Sc2ccccc21` (stereo unspecified): > 151 µM and > 151 µM.
The matching figures for `COc1ccc(C(=O)/C=C/c2ccc(OCCCOc3ccc(/C=C/C(=O)c4ccc(OC)cc4)cc3)cc2)cc1`: > 200 µM and > 200 µM.
Taken in the same sequence, the figures for `Clc1c2ncccc2cc2n[nH]nc12` were > 200 µM and > 100 µM.
In the case of `Cc1c(Cl)cccc1NC(=O)/C(Cl)=C(\Cl)C(=O)O`, the result was inactive.
With `O=c1ccn([C@@H]2C[C@H](CO)CS(=O)C2)c(=O)[nH]1` (stereo partly specified), the EC50 is > 977 µM and the IC50 was > 977 µM.
For `COc1cc(C(CN)N(C)C)cc(OC)c1OC` (stereo unspecified), the EC50 is > 200 µM and the half-maximal inhibitory concentration (IC50) is > 200 µM.
In the case of `COC1=CC(=O)c2nccc(C)c2C1=O`, the outcome was inactive.
Consider `O=C(c1ccccc1)c1nc2ccc(Cl)cc2c2c1Cc1ccccc1-2`, for which the EC50 was > 2.95 µM and the concentration for half-maximal inhibition (IC50) was > 2.95 µM.
On to `CC12CC(C/C1=N/O)C(C)(C)C2` (stereo unspecified), for which the EC50 is > 1480 µM and the 50% inhibitory concentration (IC50) is > 1480 µM.
For `CN=C(NC#N)NCc1ccccc1`, the EC50 is > 1320 µM and the half-inhibitory concentration (IC50) came to 1200 µM.
The matching figures for `CC1CN1SSN1CC1C` (stereo unspecified): > 200 µM and 182 µM.
The matching figures for `COc1ccc2c(c1)NC(=O)C(O)(Cc1ccccc1)C2=O` (stereo unspecified): > 200 µM and > 200 µM.
As to `C(=C\c1ccc(-c2cn3cc(/C=C/C=N/NC4=NCCN4)ccc3n2)cc1)/C=N/NC1=NCCN1`, the result was inactive.
Turning to `O=c1n(-c2ccc(Cl)c(Cl)c2)c(=O)n(-c2ccc(Cl)c(Cl)c2)c(=O)n1-c1ccc(Cl)c(Cl)c1`, the EC50 was > 200 µM and the IC50 came to 5.89 µM.
Turning to `C/C(=N\NC(N)=S)C(CN(CC(C)C)CC(C)C)C(=O)Nc1ccc(C)cc1C` (stereo unspecified), the EC50 was > 85.1 µM and the 50% inhibitory concentration (IC50) is > 85.1 µM.
Regarding `CC(C)OC(=O)C1(C(C)C)CCc2ccc(C(=O)CCC(=O)O)cc21` (stereo unspecified), the EC50 is > 200 µM and the 50% inhibitory concentration (IC50) was found to be 178 µM.
The matching figures for `COC1/C=C/OC2(C)Oc3c(C)c(O)c4c(O)c(c(/C=N/N5C(C)CN(Cc6ccc(NC(C)=O)cc6)CC5C)c(O)c4c3C2=O)NC(=O)C(C)=C/C=C/C(C)C(O)C(C)C(O)C(C)C(OC(C)=O)C1C` (stereo unspecified): > 200 µM and 9.12 µM.
